Source: patent publication US8735406B2, “8-oxodihydropurine derivative” (Dainippon Sumitomo Pharma Co., Ltd., priority 2009, dated 2014)
Read-outs that look alike come from different tables or passages of the source.

Target: T1, FAAH (Rattus norvegicus, UniProt P97612)
T1 construct: Preparation of Rat Brain Membranes Preparations (FAAH Enzyme Solution); from tissue; host or cells: rat cerebrum (brain membrane preparation)
T1 sequence (P97612 1-579): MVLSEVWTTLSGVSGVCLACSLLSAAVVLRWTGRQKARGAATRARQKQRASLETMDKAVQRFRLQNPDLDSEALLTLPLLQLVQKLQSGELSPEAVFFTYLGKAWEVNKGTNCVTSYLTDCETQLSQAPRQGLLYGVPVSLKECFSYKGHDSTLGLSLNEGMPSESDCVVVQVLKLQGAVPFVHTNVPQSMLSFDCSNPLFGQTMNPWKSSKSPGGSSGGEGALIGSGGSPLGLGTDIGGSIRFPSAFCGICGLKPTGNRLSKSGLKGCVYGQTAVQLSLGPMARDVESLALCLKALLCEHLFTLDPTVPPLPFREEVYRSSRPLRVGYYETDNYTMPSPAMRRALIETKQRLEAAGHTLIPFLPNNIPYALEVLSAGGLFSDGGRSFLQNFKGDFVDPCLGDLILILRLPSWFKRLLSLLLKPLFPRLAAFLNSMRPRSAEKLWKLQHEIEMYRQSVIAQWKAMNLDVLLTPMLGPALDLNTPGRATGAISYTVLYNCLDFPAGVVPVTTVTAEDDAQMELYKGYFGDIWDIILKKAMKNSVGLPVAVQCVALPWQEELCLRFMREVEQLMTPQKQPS
Assay: Determination of FAAH inhibitory activity in rat (rat brain membrane preparations, [3H]-anandamide hydrolysis)
Type: biochemical
Conditions: rat brain membrane preparations; for IC50: read-out: FAAH Inhibition IC50
Outline: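 Compounds tested from 0.1 nM to 1 μM to derive IC50 against FAAH hydrolysis in rat brain membrane preparations (100 μg/mL). A 10-min 37 °C preincubation was followed by 10 min with [3H]-anandamide (2 nM) mixed with 2 μM unlabelled anandamide. Radioactive ethanolamine was extracted into the water/methanol layer and counted.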

[1] = at 100 nM, read-out: FAAH Inhibition Inhibition Rate at 100 nM
[2] = 100 nM test substance, read-out: FAAH Inhibition, Inhibition Rate at 100 nM

SMILES | inhibition at 0.1 µM [1] | IC50 | inhibition at 0.1 µM [2] | IC50 (test substance 0.1 nM to 1 μM)
CCn1c(=O)n(C(=O)N(C)C)c2nc(CCc3ccc(F)cc3)ncc21 [Example 645, 7-Ethyl-2-[2-(4-fluorophenyl)ethyl]-N,N-dimethyl-8-oxo-7,8-dihydro-9H-purine-9-carboxamide] | 98% | 20 nM | – | –
CCCn1c(=O)n(C(=O)N(C)C)c2nc(CCc3ccccc3F)ncc21 [Example 646, 2-[2-(2-Fluorophenyl)ethyl]-N,N-dimethyl-8-oxo-7-propyl-7,8-dihydro-9H-purine-9-carboxamide] | 117% | 13 nM | – | –
CCCn1c(=O)n(C(=O)N(C)C)c2nc(CCc3cccc(F)c3)ncc21 [Example 647, 2-[2-(3-Fluorophenyl)ethyl]-N,N-dimethyl-8-oxo-7-propyl-7,8-dihydro-9H-purine-9-carboxamide] | 100% | 10 nM | – | –
CCCn1c(=O)n(C(=O)N(C)C)c2nc(CCc3ccc(F)cc3)ncc21 [Example 648, 2-[2-(4-Fluorophenyl)ethyl]-N,N-dimethyl-8-oxo-7-propyl-7,8-dihydro-9H-purine-9-carboxamide] | 87% | 27 nM | – | –
CCn1c(=O)n(C(=O)N2CCC2)c2nc(CCc3ccccc3F)ncc21 [Example 649, 9-(Azetidin-1-ylcarbonyl)-7-ethyl-2-[2-(2-fluorophenyl)ethyl]-7,9-dihydro-8H-purine-8-one] | 90% | 17 nM | – | –
CCn1c(=O)n(C(=O)N2CCC2)c2nc(CCc3cccc(F)c3)ncc21 [Example 650, 9-(Azetidin-1-ylcarbonyl)-7-ethyl-2-[2-(3-fluorophenyl)ethyl]-7,9-dihydro-8H-purine-8-one] | 96% | 10 nM | – | –
CCn1c(=O)n(C(=O)N2CCC2)c2nc(CCc3ccc(F)cc3)ncc21 [Example 651, 9-(Azetidin-1-ylcarbonyl)-7-ethyl-2-[2-(4-fluorophenyl)ethyl]-7,9-dihydro-8H-purine-8-one] | 100% | 9 nM | – | –
CN(C)C(=O)n1c(=O)n(C)c2cnc(Cc3cccc(C(F)(F)F)c3)nc21 [Example 654, N,N,7-Trimethyl-8-oxo-2-[3-(trifluoromethyl)benzyl]-7,8-dihydro-9H-purine-9-carboxamide] | 110% | 11 nM | – | –
CCn1c(=O)n(C(=O)N2CC(c3ccccc3)C2)c2cnc(COC)nc21 [Example 655, 9-Ethyl-2-(methoxymethyl)-7-[(3-phenylazetidin-1-yl)carbonyl]-7,9-dihydro-8H-purine-8-one] | 102% | 10 nM | – | –
CCn1c(=O)n(C(=O)N2CC(c3ccc(F)cc3)C2)c2cnc(COC)nc21 [Example 656, 9-Ethyl-7-{[3-(4-fluorophenyl)azetidin-1-yl]carbonyl}-2-(methoxymethyl)-7,9-dihydro-8H-purine-8-one] | 115% | 10 nM | – | –
CCn1c(=O)n(C(=O)N2CC(c3cccc(F)c3)C2)c2cnc(COC)nc21 [Example 657, 9-Ethyl-7-{[3-(3-fluorophenyl)azetidin-1-yl]carbonyl}-2-(methoxymethyl)-7,9-dihydro-8H-purine-8-one] | 119% | 9 nM | – | –
CCCn1c(=O)n(C(=O)N2CC(c3ccccc3)C2)c2cnc(COC)nc21 [Example 658, 2-(Methoxymethyl)-7-[(3-phenylazetidin-1-yl)carbonyl]-9-propyl-7,9-dihydro-8H-purine-8-one] | 86% | 15 nM | – | –
CCCn1c(=O)n(C(=O)N2CC(c3ccc(F)cc3)C2)c2cnc(COC)nc21 [Example 659, 7-{[3-(4-Fluorophenyl)azetidin-1-yl]carbonyl}-2-(methoxymethyl)-9-propyl-7,9-dihydro-8H-purine-8-one] | 112% | 6 nM | – | –
CCCn1c(=O)n(C(=O)N2CC(c3cccc(F)c3)C2)c2cnc(COC)nc21 [Example 660, 7-{[3-(3-Fluorophenyl)azetidin-1-yl]carbonyl}-2-(methoxymethyl)-9-propyl-7,9-dihydro-8H-purine-8-one] | 121% | 10 nM | – | –
CCCn1c(=O)n(C(=O)N2CC(c3ccccc3F)C2)c2cnc(COC)nc21 [Example 661, 7-{[3-(2-Fluorophenyl)azetidin-1-yl]carbonyl}-2-(methoxymethyl)-9-propyl-7,9-dihydro-8H-purine-8-one] | 82% | 36 nM | – | –
CCCn1c(=O)n(C(=O)N2CC(c3cccc(C(F)(F)F)c3)C2)c2cnc(COC)nc21 [Example 662, 2-(Methoxymethyl)-9-propyl-7-({3-[3-(trifluoromethyl)phenyl]azetidin-1-yl}carbonyl)-7,9-dihydro-8H-purine-8-one] | 97% | 8 nM | – | –
Cn1c(=O)n(C(=O)N2CCCC2)c2cnc(/C=C/c3ccc(C(F)(F)F)cc3)nc21 [compound 3] | – | – | 59% | 86 nM
Cn1c(=O)n(C(=O)N2CCCC2)c2cnc(/C=C/c3cccc(C(F)(F)F)c3)nc21 [compound 10] | – | – | 23% | > 100 nM
Cn1c(=O)n(C(=O)N2CCCC2)c2cnc(CCc3cccc(F)c3)nc21 [compound 13] | – | – | 91% | 42 nM
COc1cccc(CCc2ncc3c(n2)n(C)c(=O)n3C(=O)N2CCCC2)c1 [compound 15] | – | – | 75% | 63 nM
Cc1ccccc1-c1ncc2c(n1)n(C)c(=O)n2C(=O)N1CCCC1 [compound 169] | – | – | 78% | 41 nM
COc1ccccc1-c1ncc2c(n1)n(C)c(=O)n2C(=O)N1CCCC1 [compound 172] | – | – | 67% | 69 nM
COc1ccc(-c2ncc3c(n2)n(C)c(=O)n3C(=O)N2CCCC2)cc1 [compound 174] | – | – | 102% | 6 nM
CCOc1cccc(-c2ncc3c(n2)n(C)c(=O)n3C(=O)N2CCCC2)c1 [compound 175] | – | – | 101% | 7 nM
CCOc1ccc(-c2ncc3c(n2)n(C)c(=O)n3C(=O)N2CCCC2)cc1 [compound 176] | – | – | 100% | 10 nM
Cn1c(=O)n(C(=O)N2CCCC2)c2cnc(-c3ccc(OC(F)(F)F)cc3)nc21 [compound 177] | – | – | 78% | 58 nM

Continued, values first:

inhibition at 0.1 µM [1] | IC50 | inhibition at 0.1 µM [2] | IC50 (test substance 0.1 nM to 1 μM) | SMILES
– | – | 96% | 42 nM | Cn1c(=O)n(C(=O)N2CCCC2)c2cnc(-c3ccc(C(F)(F)F)cc3)nc21 [compound 178]
– | – | 97% | 44 nM | Cn1c(=O)n(C(=O)N2CCCC2)c2cnc(-c3ccc(-c4ccccc4)cc3)nc21 [compound 179]
– | – | 99% | 38 nM | CCCc1ccc(-c2ncc3c(n2)n(C)c(=O)n3C(=O)N2CCCC2)cc1 [compound 180]
– | – | 101% | 4 nM | Cn1c(=O)n(C(=O)N2CCCC2)c2cnc(-c3ccc(C#N)cc3)nc21 [compound 181]
– | – | 102% | 4 nM | CC(=O)c1ccc(-c2ncc3c(n2)n(C)c(=O)n3C(=O)N2CCCC2)cc1 [compound 184]
– | – | 58% | 89 nM | Cn1c(=O)n(C(=O)N2CCCC2)c2cnc(-c3ccc(C(C)(C)C)cc3)nc21 [compound 185]
– | – | 102% | 7 nM | CC(=O)c1cccc(-c2ncc3c(n2)n(C)c(=O)n3C(=O)N2CCCC2)c1 [compound 186]
– | – | 99% | 9 nM | Cn1c(=O)n(C(=O)N2CCCC2)c2cnc(-c3ccc(F)cc3F)nc21 [compound 188]
– | – | 100% | 6 nM | Cn1c(=O)n(C(=O)N2CCCC2)c2cnc(-c3ccc(F)c(F)c3)nc21 [compound 190]
– | – | 105% | 7 nM | COc1ccc(-c2ncc3c(n2)n(C)c(=O)n3C(=O)N2CCCC2)cc1F [compound 191]
– | – | 103% | 39 nM | Cc1ccc(-c2ncc3c(n2)n(C)c(=O)n3C(=O)N2CCCC2)cc1F [compound 192]
– | – | 102% | 42 nM | CCOc1cc(F)cc(-c2ncc3c(n2)n(C)c(=O)n3C(=O)N2CCCC2)c1 [compound 193]
– | – | 83% | 66 nM | COc1ccc(F)cc1-c1ncc2c(n1)n(C)c(=O)n2C(=O)N1CCCC1 [compound 195]
– | – | 69% | 70 nM | Cc1cc(C)cc(-c2ncc3c(n2)n(C)c(=O)n3C(=O)N2CCCC2)c1 [compound 197]
– | – | 92% | 46 nM | Cn1c(=O)n(C(=O)N2CCCC2)c2cnc(-c3ccc(OC(F)(F)F)c(F)c3)nc21 [compound 198]
– | – | 68% | 72 nM | Cn1c(=O)n(C(=O)N2CCCC2)c2cnc(-c3cc(C(F)(F)F)ccc3F)nc21 [compound 199]
